The structures appear in SMILES notation.

For experiment [1], the target named is human full length His-tagged BTK (Homo sapiens (Human), UniProt Q06187). The experiment can be described thus: BTK Lanthscreen Eu Kinase Binding assay. To be noted: 2 nM BTK. On the procedure: BTK Lanthscreen® Eu Kinase Binding Assay:
A Lanthscreen® Eu Kinase Binding assay (Life Technologies) is performed to quantitate the ability of test compounds to bind to BTK. The assay is based on the binding and displacement of Alexa Fluor647-labeled Kinase Tracer #236 to the ATP-binding site of human full length His-tagged BTK (Life Technologies cat #PV3587) with TR-FRET detection using a europium-labeled anti-His antibody. The assay is assembled in 384-well low volume NBS black plates (Corning) where 2 nM BTK and test compound in DMSO at varying concentrations are pre-incubated for 30 min at 28° C. in assay buffer consisting of 50 mM HEPES, pH 7.4, 10 mM MgCl2, 1 mM EGTA. 100 μM Na3VO4 and 0.01% Brij 35. Then, 2 nM of Eu-anti His antibody and 30 nM Kinase Tracer are added and incubated for 60 min at 28° C. Following incubation, TR-FRET signal is read on an Envision plate reader (Excitation: 340 nm; Emissions: 615 and 665 nm). The 665:615 nm emission ratio is calculated and converted to POC compared to control and blank wells.

The subject of experiment [2] is BTK (IL-6 production in primary CD19+ B cells). The experiment can be described thus: Inhibition of IL-6 production in B cells co-stimulated with ODN 2006 and anti-hIgD. In kind it is cell-based. Particulars: B-cell, anti-human IgD + ODN 2006. As for the experimental part: Inhibition of IL-6 Production in B Cells Co-Stimulated with ODN 2006 and anti-hIgD
Primary CD19+ B cells (AllCells #PB010F) are thawed and plated in RPMI containing 10% HI FBS in a 384-well tissue cultured plate at 20,000 cells/well. The cells are treated with test compound (0.5% DMSO final concentration) and incubated for 1 hour at 37° C., 5% CO2. Cells are then stimulated with 5 ug/mL Goat F(ab′)2 anti-human IgD (SouthernBiotech #2032) and 2 uM ODN 2006 (InvivoGen #tlrl-2006) and incubated for 18-24 hours at 37° C., 5% CO2. IL-6 in the supernatant is measured using Meso Scale Discovery kit #K211AKB-6.
(§1) Representative compounds of the present invention are tested and show BTK inhibition (Table I). […] Additionally, compounds of the present invention, as represented by examples in Table II, are selective for BTK inhibition over other related kinases. […] In this table the BTK activity is measured by IL-6 production in primary CD19^+ B cells, and the EGFR activity is measured by EGFR phosphorylation in A431 cells.

Experiment [3] concerns the target human recombinant Txk (full length, GST-tagged) (Homo sapiens (Human), UniProt P42681). The experiment can be described thus: TXK Z'-LYTE assay.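 Further: FRET read-out of kinase phosphorylation of a synthetic peptide labelled with Coumarin and Fluorescein, scored by protease sensitivity of unphosphorylated peptide, incubated at 22 °C.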 Particulars: read-out: TXK IC50, 100 μM ATP.
Description: Z′-LYTE™ Assay (Life Technologies):
(§2) The Z′-Lyte assay employs a FRET-based, coupled-enzyme format and is based on the differential sensitivity of phosphorylated and non-phosphorylated peptides to proteolytic Cleavage. The activity of human recombinant BTK (full length, His-tagged), BMX (full length, His-tagged) or Txk (full length, GST-tagged) is estimated by measuring the phosphorylation of a synthetic FRET peptide substrate labeled with Coumarin and Fluorescein. […] Incubations are carried out at 22° C. in black polypropylene 384-well plates (Corning).
(§3) Representative compounds of the present invention are assessed for inhibition of BTK, BMX, and TXK measuring phosphorylation of a substrate (Z′-LYTE™ assay, Life Technologies) and TEC measuring displacement of a “tracer” (Lanthscreen® Eu Kinase Binding assay, Life Technologies).
The target of experiment [4] is EGFR (EGFR phosphorylation in A431 cells) (Homo sapiens (Human), UniProt P00533). The experiment can be described thus: Inhibition of EGFR autophosphorylation in A431 human epithelial cells stimulated with EGF. In kind it is cell-based. Particulars: EGF 60 ng/mL, read-out: A431 p-EGFR IC50. On the procedure: Inhibition of EGFR Autophosphorylation in A431 Human Epithelial Cells Stimulated with Epithelial Growth Factor
A431 cells (ATCC #CRL-1555 FZ) are thawed and plated in DMEM containing 10% FBS in a 384-well tissue culture treated plate at 15,000 cells/well. After incubating for 24 hours at 37° C., 5% CO2, the cells are treated with test compound (1% DMSO final concentration) and incubated for 16 hours at 37° C., 5% CO2. EGF (Millipore, 01-107) is added at a final concentration of 60 ng/mL and incubated for 10 minutes. The medium is removed, the cells are lysed, and phospho EGFR is measured (Meso Scale Diagnostics, N31CB-1).
as §1

The target in experiment [5] is human recombinant BTK (full length, His-tagged) (Homo sapiens (Human), UniProt Q06187). The experiment can be described thus: BTK Z'-LYTE assay.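 Further: FRET readout of kinase phosphorylating a coumarin and fluorescein labelled synthetic peptide, detected via protease sensitivity of unphosphorylated versus phosphorylated substrate, incubated at 22 °C in 384-well plates.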 Particulars: 25 μM ATP. It is filed as biochemical.
Description: Z′-LYTE™ Assay (Life Technologies):
as §2, §3
Experiment [6] has as its target human recombinant full length TEC (His-tagged) (Homo sapiens (Human), UniProt P42680). The experiment can be described thus: TEC Lanthscreen Eu Kinase Binding assay. Particulars: 1 nM TEC.

Chain of human full length His-tagged BTK (Q06187 whole entry): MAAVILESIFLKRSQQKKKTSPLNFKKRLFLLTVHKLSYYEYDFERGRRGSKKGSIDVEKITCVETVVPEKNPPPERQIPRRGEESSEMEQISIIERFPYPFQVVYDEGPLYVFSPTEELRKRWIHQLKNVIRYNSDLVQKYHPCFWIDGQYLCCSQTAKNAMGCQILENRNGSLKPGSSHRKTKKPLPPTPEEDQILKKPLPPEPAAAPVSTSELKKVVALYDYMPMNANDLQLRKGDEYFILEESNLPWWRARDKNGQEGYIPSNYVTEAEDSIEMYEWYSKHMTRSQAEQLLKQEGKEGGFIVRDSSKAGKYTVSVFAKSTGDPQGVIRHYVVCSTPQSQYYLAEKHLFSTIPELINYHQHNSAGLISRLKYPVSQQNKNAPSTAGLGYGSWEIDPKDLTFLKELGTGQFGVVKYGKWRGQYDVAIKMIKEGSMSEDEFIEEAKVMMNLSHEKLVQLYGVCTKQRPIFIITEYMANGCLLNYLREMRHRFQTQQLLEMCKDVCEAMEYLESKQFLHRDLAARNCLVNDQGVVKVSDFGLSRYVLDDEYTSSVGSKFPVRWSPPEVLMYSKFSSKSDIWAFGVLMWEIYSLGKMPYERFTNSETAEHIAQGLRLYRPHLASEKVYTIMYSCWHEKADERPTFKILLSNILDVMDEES
Chain of human recombinant BTK (full length, His-tagged) (Q06187 whole entry): as above
Chain of human recombinant Txk (full length, GST-tagged) (P42681 whole entry): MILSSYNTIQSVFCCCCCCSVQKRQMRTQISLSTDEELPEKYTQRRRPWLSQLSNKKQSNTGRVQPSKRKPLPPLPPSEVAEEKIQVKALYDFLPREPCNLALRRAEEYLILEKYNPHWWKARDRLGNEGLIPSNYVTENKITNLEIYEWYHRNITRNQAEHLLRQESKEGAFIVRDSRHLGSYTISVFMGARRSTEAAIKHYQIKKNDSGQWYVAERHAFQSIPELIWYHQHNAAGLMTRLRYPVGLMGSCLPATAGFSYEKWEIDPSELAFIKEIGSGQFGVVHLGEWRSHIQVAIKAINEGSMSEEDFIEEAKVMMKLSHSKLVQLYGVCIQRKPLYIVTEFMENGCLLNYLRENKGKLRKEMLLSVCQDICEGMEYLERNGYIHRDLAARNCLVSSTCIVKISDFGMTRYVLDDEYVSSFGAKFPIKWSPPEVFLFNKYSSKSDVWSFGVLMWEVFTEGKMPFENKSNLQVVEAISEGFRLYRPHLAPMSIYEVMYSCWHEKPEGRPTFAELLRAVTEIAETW
Chain of human recombinant full length TEC (His-tagged) (P42680 whole entry): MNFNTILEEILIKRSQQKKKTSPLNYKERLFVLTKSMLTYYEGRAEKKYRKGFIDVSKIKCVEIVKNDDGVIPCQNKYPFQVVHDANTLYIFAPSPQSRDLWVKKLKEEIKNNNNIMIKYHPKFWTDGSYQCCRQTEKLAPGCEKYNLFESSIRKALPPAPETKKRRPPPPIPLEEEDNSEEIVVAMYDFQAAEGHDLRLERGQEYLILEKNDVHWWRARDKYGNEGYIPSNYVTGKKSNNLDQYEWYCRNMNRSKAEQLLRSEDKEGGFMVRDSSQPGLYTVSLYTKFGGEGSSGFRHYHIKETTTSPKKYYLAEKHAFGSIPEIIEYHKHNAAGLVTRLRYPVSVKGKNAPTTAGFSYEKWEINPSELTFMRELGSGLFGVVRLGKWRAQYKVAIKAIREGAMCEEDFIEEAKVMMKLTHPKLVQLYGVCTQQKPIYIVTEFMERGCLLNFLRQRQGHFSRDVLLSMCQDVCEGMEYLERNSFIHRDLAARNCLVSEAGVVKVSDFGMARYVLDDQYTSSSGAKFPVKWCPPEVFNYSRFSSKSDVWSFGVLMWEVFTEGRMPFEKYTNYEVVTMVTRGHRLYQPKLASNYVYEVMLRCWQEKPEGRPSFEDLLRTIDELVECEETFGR
Chain of EGFR (EGFR phosphorylation in A431 cells) (P00533 25-1210): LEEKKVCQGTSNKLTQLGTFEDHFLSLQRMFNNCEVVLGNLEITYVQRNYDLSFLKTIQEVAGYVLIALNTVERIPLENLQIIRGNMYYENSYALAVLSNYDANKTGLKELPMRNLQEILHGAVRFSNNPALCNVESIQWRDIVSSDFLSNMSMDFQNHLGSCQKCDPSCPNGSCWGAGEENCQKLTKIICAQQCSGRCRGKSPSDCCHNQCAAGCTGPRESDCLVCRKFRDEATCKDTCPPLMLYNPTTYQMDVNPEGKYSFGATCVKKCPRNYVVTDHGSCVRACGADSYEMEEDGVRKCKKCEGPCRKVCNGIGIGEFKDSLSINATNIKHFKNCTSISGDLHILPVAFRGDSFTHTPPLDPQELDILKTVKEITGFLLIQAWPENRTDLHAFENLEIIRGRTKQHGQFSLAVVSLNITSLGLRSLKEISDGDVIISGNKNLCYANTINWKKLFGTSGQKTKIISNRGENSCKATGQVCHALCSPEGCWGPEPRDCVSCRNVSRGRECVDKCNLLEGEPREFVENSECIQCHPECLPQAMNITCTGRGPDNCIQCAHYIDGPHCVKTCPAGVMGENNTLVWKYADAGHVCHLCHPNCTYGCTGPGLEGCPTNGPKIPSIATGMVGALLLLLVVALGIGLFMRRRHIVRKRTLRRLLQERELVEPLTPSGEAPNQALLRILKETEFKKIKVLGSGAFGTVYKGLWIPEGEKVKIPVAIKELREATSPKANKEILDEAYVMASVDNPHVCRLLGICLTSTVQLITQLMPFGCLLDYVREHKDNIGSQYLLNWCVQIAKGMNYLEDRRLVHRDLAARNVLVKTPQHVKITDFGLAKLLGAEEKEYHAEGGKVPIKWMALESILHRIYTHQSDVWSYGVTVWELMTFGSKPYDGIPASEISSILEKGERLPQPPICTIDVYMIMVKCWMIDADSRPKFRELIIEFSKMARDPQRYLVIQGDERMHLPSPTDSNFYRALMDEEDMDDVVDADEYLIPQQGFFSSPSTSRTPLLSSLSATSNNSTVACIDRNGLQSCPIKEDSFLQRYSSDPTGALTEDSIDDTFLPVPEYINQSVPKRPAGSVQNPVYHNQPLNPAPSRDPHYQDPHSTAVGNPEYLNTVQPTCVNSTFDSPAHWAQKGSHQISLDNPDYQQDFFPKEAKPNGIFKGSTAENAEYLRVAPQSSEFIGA

On to `CC#CC(=O)N1CC[C@]2(C1)C[C@H](n1nc(-c3cnn(Cc4cccc(C(F)(F)F)c4C)c3)c(C(N)=O)c1N)C2` [Example 6], for which the IC50 in experiment [1] is 0.4 nM; in experiment [2], 1 nM; in experiment [3] it was 43 nM; in experiment [4], greater than 10000 nM; in experiment [5], 1.5 nM; in experiment [6] it was 65 nM.

As for `CC#CC(=O)N1CC[C@]2(C1)C[C@H](n1nc(-c3cnn(Cc4cccc(C(F)(F)F)c4C#N)c3)c(C(N)=O)c1N)C2` [Example 10], the IC50 in experiment [1] is 0.5 nM; in experiment [2] it was 1.1 nM; in experiment [3], 100 nM; in experiment [4] it was greater than 10000 nM; in experiment [5] it was 1.4 nM; in experiment [6], 120 nM.

As to `CC#CC(=O)N1CC[C@]2(C1)C[C@H](n1nc(-c3cnn(Cc4ccccc4C)c3)c(C(N)=O)c1N)C2` [Example 16], the IC50 was 1.5 nM in experiment [1]; 2 nM in experiment [2]; 430 nM in experiment [3]; greater than 10000 nM in experiment [4]; 13 nM in experiment [5]; 220 nM in experiment [6].

For the molecule `CC#CC(=O)N1CC[C@]2(C1)C[C@H](n1nc(-c3cn(Cc4cccc(C(F)(F)F)c4)nc3C)c(C(N)=O)c1N)C2` [Example 19], the IC50 was 0.9 nM in experiment [1]; 2.3 nM in experiment [2]; 220 nM in experiment [3]; greater than 10000 nM in experiment [4]; 5 nM in experiment [5]; 160 nM in experiment [6].

As for `CC#CC(=O)N1CC[C@]2(C1)C[C@H](n1nc(-c3c(C)nn(Cc4cccc(C(F)(F)F)c4)c3C)c(C(N)=O)c1N)C2` [Example 21], the IC50 in experiment [1] is 5.8 nM; in experiment [2], 9.2 nM; in experiment [3], 1900 nM; in experiment [4], greater than 10000 nM; in experiment [5], 40 nM; in experiment [6], 1100 nM.

In the case of `CC#CC(=O)N1CC[C@]2(C1)C[C@H](n1nc(-c3cnn(Cc4cccc(C(F)(F)F)c4)c3)c(C(N)=O)c1NC)C2` [Example 23], the IC50 was 1.3 nM in experiment [1]; 4.5 nM in experiment [2]; 600 nM in experiment [3]; greater than 10000 nM in experiment [4]; 8.3 nM in experiment [5]; 130 nM in experiment [6].

Regarding `CC#CC(=O)N1CC[C@]2(C1)C[C@H](n1nc(-c3ccn(Cc4cccc(C(F)(F)F)c4)n3)c(C(N)=O)c1N)C2` [Example 25], the IC50 in experiment [1] was 2.6 nM; in experiment [2], 6.1 nM; in experiment [3] it was 850 nM; in experiment [4], greater than 10000 nM; in experiment [5], 19 nM; in experiment [6], 160 nM.

As for `C=CC(=O)N1CC[C@]2(C1)C[C@H](n1nc(-c3cnn(Cc4cccc(C(F)(F)F)c4F)c3)c(C(N)=O)c1N)C2` [Example 26], the IC50 in experiment [1] is 2.6 nM; in experiment [2], 4 nM; in experiment [3], 3000 nM; in experiment [4], greater than 10000 nM; in experiment [5], 18 nM; in experiment [6], 430 nM.

On to `CC#CC(=O)N1CC[C@]2(C1)C[C@H](n1nc(-c3cnn(Cc4ccc(F)c(C(F)(F)F)c4)c3)c(C(N)=O)c1N)C2` [Example 30], for which the IC50 in experiment [1] was 0.6 nM; in experiment [2], 2.4 nM; in experiment [3], 160 nM; in experiment [4], greater than 10000 nM; in experiment [5] it was 3 nM; in experiment [6], 64 nM.

On to `CC#CC(=O)N1CC[C@]2(C1)C[C@H](n1nc(-c3cnn(Cc4cccc(C(F)(F)F)c4F)c3)c(C(N)=O)c1N)C2` [Example 33], for which the IC50 was 0.4 nM in experiment [1]; 1.2 nM in experiment [2]; 59 nM in experiment [3]; greater than 10000 nM in experiment [4]; 1.3 nM in experiment [5]; 48 nM in experiment [6].

As for `CC#CC(=O)N1CC[C@]2(C1)C[C@H](n1nc(-c3cnn(Cc4cccc(C(F)F)c4)c3)c(C(N)=O)c1N)C2` [Example 36], the IC50 in experiment [1] is 0.2 nM; in experiment [2] it was 0.5 nM; in experiment [3], 50 nM; in experiment [4], greater than 10000 nM; in experiment [5] it was 1 nM; in experiment [6], 22 nM.

For orientation: IC50 means the point on the concentration scale where inhibition reaches its midpoint.
